Reference: paper PMC6540285, “Evaluation of Protein Kinase Inhibitors with PLK4 Cross-Over Potential in a Pre-Clinical Model of Cancer” (International Journal of Molecular Sciences, 2019)
Read-outs that look alike come from different tables or passages of the source.

How the values were obtained:
AURKA = target: T1, AURKA (Homo sapiens, UniProt O14965); test: Z' LYTE Kinase Assay, 10-point IC50; type: biochemical; conditions: SelectScreen, 10-point titration
T1 sequence (O14965 1-403): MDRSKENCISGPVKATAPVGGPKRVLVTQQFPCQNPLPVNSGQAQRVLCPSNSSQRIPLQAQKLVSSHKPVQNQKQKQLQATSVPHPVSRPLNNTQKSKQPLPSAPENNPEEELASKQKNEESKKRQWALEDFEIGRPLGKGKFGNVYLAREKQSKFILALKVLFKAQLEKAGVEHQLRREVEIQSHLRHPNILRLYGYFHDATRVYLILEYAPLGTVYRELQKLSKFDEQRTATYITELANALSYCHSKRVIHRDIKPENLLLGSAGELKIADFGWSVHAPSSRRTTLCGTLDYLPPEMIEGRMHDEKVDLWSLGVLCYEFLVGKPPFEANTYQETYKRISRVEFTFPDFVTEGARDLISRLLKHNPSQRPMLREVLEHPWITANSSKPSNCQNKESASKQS
From the text: (§1) Curves were generated from the compound concentration and the corresponding percent (%) inhibition calculated for each concentration tested. For PLK4, we used the LanthaScreen Eu Kinase Binding Assay (Thermo Fisher Scientific, Carlsbad, CA, USA) that utilizes an Alexa Fluor conjugated “tracer” and an Eu-labeled anti-tag antibody to measure binding of a compound to the kinase target. For AURKs (AURKA, AURKB and AURKC) we used the Z’ LYTE Kinase Assay (Thermo Fisher Scientific, Carlsbad, CA, USA) that determines the differential sensitivity of phosphorylated and non-phosphorylated peptide substrates to proteolytic cleavage using a FRET-based readout.

AURKC = target: T2, AURKC (Homo sapiens, UniProt Q9UQB9); test: Z' LYTE Kinase Assay, 10-point IC50; type: biochemical; conditions: SelectScreen, 10-point titration
T2 sequence (Q9UQB9 1-309): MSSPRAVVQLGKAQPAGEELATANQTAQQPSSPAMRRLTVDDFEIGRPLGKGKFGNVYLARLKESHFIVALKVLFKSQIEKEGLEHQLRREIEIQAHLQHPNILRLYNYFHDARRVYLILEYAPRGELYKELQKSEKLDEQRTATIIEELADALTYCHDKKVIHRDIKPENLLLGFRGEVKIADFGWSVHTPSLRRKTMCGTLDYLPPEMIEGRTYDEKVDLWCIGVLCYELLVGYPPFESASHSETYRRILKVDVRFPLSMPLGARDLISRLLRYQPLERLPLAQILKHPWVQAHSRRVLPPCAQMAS
From the text: as §1

AURKB = AURKB (Homo sapiens, UniProt Q96GD4); test: Z' LYTE Kinase Assay, 10-point IC50; type: biochemical; conditions: SelectScreen, 10-point titration
Sequence of AURKB (Q96GD4 whole entry): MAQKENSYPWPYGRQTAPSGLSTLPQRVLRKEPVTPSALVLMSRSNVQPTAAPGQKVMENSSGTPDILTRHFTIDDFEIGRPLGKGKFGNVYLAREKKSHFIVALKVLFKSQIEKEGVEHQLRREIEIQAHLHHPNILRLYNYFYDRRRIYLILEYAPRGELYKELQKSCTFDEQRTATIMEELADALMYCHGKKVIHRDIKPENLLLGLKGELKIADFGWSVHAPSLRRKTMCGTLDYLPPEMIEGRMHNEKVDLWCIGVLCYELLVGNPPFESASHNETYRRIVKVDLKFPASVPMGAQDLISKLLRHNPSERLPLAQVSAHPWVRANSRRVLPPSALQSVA
From the text: as §1

BT-16 cells [1] = type: cell-based; conditions: BT-16, read-out: MTT: IC50 of the proliferation assay
MON cells [2] = test: cells; conditions: read-out: MTT: IC50 of the proliferation assay
D283 cells [3] = type: cell-based
RT and MB cells [4] = test: Cell cycle analysis (PI flow cytometry); type: cell-based; conditions: for polyploidy: cell lines tested, concentration not given
Protocol: Cell cycle analysis was performed by flow cytometry of cells stained with Propidium Iodide (PI) (Thermo Fisher Scientific, Carlsbad, CA, USA) according to manufacturer’s instructions. Cells treated with the top PLK4i candidates and 0.1% DMSO (control) were fixed in 80% ethanol overnight, stained with PI, and then subjected to flow cytometric analysis using a BD Fortessa instrument (BD Biosciences, San Jose, CA, USA). Data was analyzed using Modfit LT from Verity Software House (Topsham, ME, USA). All experiments were performed in triplicate.

DAOY cells [5] = type: cell-based; conditions: Homo sapiens, read-out: MTT: IC50 of the proliferation assay
RT and MB cells [6] = test: Beta-galactosidase senescence assay; type: cell-based; conditions: all cell lines
Protocol: Senescence was evaluated using the Beta-galactosidase assay (Senescence Cells Histochemical Staining Kit CS0030 (Sigma, St Louis, MO, USA) and clonogenic recovery assay as previously described.

RT and MB cells [7] = test: Clonogenic colony formation assay; type: cell-based; conditions: 50nM
Protocol: All cell lines were seeded at 200 cells per well in six-well plates and incubated overnight. After 24 h, the treatment medium was added and changed once a week. Cells were treated with 0.01, 0.05, 0.1, 0.2, 0.5, 1, 5, and 10 µM of PLK4i and 0.1% DMSO as control. After 14 days, the cells were washed twice with 1x PBS, fixed with formalin, and stained with Cresyl violet (ACROS Organics, Pittsburgh, PA, USA). Colonies were counted using the ImageJ software (www.imagej.nih.gov, accessed on April 21, 2017).

D283 cells [8] = test: PrestoBlue Cell Viability assay; type: cell-based
Protocol: (§2) Cell viability was assessed using the Presto Blue™ Cell Viability reagent (Thermo Fisher Scientific, Carlsbad, CA, USA) following the manufacturer’s instructions. Cells were plated in 96-well plates at the same densities described above for the proliferation assay. The fluorescence was measured after 24, 48, 72, and 96 h at concentrations ranging from 0.001 to 10 µM of the inhibitor. All assays were performed in triplicate.

BT-16 cells [9] = test: PrestoBlue Cell Viability assay; type: cell-based
Protocol: as §2

MON cells [10] = test: PrestoBlue Cell Viability assay; type: cell-based; conditions: read-out: PB: IC50 of the PrestoBlue Viability assay
Protocol: as §2

BT-12 cells [11] = test: PrestoBlue Cell Viability assay; type: cell-based
Protocol: as §2

DAOY cells [12] = test: PrestoBlue Cell Viability assay; type: cell-based; conditions: Homo sapiens, read-out: PB: IC50 of the PrestoBlue Viability assay
Protocol: as §2

BT-12 cells [13] = type: cell-based; conditions: Homo sapiens, BT-12, read-out: MTT: IC50 of the proliferation assay
PLK4 = target: T3, PLK4 (Homo sapiens, UniProt O00444); test: LanthaScreen Eu Kinase Binding Assay, 10-point IC50; conditions: SelectScreen, 10-point titration
T3 sequence (O00444 1-970): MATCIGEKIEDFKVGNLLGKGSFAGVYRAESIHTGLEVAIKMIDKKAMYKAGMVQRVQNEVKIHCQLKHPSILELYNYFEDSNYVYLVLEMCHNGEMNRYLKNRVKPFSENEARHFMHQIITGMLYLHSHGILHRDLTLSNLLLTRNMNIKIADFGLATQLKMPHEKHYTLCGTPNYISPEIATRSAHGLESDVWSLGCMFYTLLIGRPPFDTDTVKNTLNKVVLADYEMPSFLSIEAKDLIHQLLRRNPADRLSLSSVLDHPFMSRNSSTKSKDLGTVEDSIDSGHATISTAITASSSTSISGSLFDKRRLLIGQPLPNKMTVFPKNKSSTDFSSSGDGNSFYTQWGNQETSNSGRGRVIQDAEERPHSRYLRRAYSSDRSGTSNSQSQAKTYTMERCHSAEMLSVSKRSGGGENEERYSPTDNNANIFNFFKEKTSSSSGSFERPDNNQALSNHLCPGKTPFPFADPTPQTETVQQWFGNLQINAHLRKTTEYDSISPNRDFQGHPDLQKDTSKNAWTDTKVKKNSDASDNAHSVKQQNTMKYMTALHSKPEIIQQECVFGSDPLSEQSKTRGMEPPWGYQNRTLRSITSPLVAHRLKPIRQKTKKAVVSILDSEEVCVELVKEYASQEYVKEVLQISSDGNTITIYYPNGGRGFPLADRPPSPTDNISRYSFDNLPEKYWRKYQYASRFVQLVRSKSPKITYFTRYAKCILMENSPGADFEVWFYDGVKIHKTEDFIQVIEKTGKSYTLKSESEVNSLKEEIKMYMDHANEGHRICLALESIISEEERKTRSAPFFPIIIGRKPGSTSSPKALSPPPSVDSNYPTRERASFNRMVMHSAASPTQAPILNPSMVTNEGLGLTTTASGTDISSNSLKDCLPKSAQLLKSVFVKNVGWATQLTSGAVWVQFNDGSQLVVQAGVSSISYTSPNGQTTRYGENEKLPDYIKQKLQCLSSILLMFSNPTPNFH
From the text: as §1

[14] = D283, read-out: MTT: IC50 of the proliferation assay
[15] = D283, read-out: PB: IC50 of the PrestoBlue Viability assay
[16] = BT-16; read-out: PB: IC50 of the PrestoBlue Viability assay
[17] = Homo sapiens, BT-12; read-out: PB: IC50 of the PrestoBlue Viability assay
[18] = BT-16, read-out: PB: IC50 of the PrestoBlue Viability assay
[19] = Homo sapiens, BT-12, read-out: PB: IC50 of the PrestoBlue Viability assay

Row | Compound | IC50 (AURKA) [µM] | IC50 (AURKC) [µM] | IC50 (AURKB) [µM] | IC50 (BT-16 cells [1]) [µM] | IC50 (MON cells [2]) [µM] | IC50 (D283 cells [3]; [14]) [µM] | IC50 (DAOY cells [5]) [µM] | cell senescence (beta-galactosidase) (RT and MB cells [6]) | colony formation (RT and MB cells [7]) | IC50 (D283 cells [8]; [15]) [µM] | IC50 (BT-16 cells [9]; [16]) [µM] | IC50 (MON cells [10]) [µM] | IC50 (BT-12 cells [11]; [17]) [µM] | IC50 (DAOY cells [12]) [µM] | IC50 (BT-12 cells [13]) [µM] | IC50 (PLK4) [µM] | IC50 (BT-16 cells [9]; [18]) [µM] | IC50 (BT-12 cells [11]; [19]) [µM] | polyploidy (RT and MB cells [4]) | other results
1 | COc1ccc2c(c1)/C(=C\c1ccc3c(/C=C/c4ccc(N5CCN(C)CC5)nc4)n[nH]c3c1)C(=O)N2 [CFI-400437] | 0.0372 | 0.00488 | 0.0131 | 1.92 | 0.722 | > 10 | 0.684 | induction of cell senescence | complete inhibition of colony formation in all cell lines | 6.3 | > 10 | 0.64 | 0.604 | 0.768 | 0.0616 | 0.00155 |  |  |  | polyploidy (cell cycle analysis) (RT and MB cells [4]; 500 nM): induction of polyploidy
2 | COc1ccc2c(c1)[C@]1(C[C@H]1c1ccc3c(/C=C/c4ccc(CN5C[C@@H](C)O[C@@H](C)C5)cc4)n[nH]c3c1)C(=O)N2 [CFI-400945, (1r,2s).2-(3-((e).4-(((cis).2,6-dimethylmorpholino)methyl)styryl). 1h.Indazol-6-yl)-5′-methoxyspiro[cyclopropane-1,3′-indolin]-2′-one] |  |  |  |  |  |  |  |  |  | 8.4 |  | 5.13 |  | 0.094 |  |  | 5.83 | 8.47 |  | 
3 | COc1cc2c(cc1F)C(c1ccccc1Cl)=Nc1c(n[nH]c1C)N2 [R1530] | 0.00622 | 0.0309 | 0.0426 | 3.9 | 3.2 | > 10 | 0.829 |  |  | > 10 | > 10 | 3.75 | > 10 | 1.85 | > 10 | 0.00706 |  |  |  | 
4 | COc1cc(Nc2ncc3c(n2)-c2ccc(Cl)cc2C(c2c(F)cccc2OC)=NC3)ccc1C(=O)O [alisertib] |  | 0.00943 |  |  | 0.358 |  | 0.34 |  |  |  | > 10 |  | > 10 | 0.031 |  |  |  |  |  | IC50 (D283 cells [3]; D283; read-out: MTT: IC50 of the proliferation assay): 9.53 µM; IC50 (D283 cells [8]; D283; read-out: PB: IC50 of the PrestoBlue Viability assay): 9.13 µM; IC50 (MON cells [10]; MON): 0.213 µM
5 | COc1c(Nc2cc(C)[nH]n2)nc(Sc2ccc(S(=O)(=O)Cc3cccc([N+](=O)[O-])c3F)cc2F)nc1N1CCCCC1 [centrinone B] | 0.623 | 5.81 | 10 | 5.47 | > 10 | 1.24 | > 10 |  |  | 1.74 | > 10 | > 10 | 6.32 | > 10 | 5.19 | 0.00869 |  |  | did not induce polyploidy | 
6 | COc1c(Nc2cc(C)[nH]n2)nc(Sc2ccc(S(=O)(=O)Cc3cccc([N+](=O)[O-])c3F)cc2F)nc1N1CCOCC1 [centrinone] | 0.108 | 0.493 | 0.68 |  |  |  |  | induction of cell senescence | complete inhibition of colony formation in all cell lines except the MB cell line DAOY and the RT cell line BT-16 |  |  | 5 |  | 4.5 |  |  | 2.22 | 3.4 | did not induce polyploidy | polyploidy (cell cycle analysis) (RT and MB cells [4]; 1µM): no polyploidy
